Source: patent US20060111378A1, “Substituted 2-anilinopyrimidines as cell-cycle-kinase or receptor-tyrosine-kinase inhibitors, their production and use as pharmaceutical agents” (priority 2004, published 2006)

How the values were obtained:
[1] = target: T1, CDK1/CycB (Homo sapiens, UniProt P06493); assay: CDK1/CycB kinase assay; assay type: biochemical; conditions: histone IIIS substrate, 0.5 μm ATP
T1 construct: GST; purchased ProQinase GmbH, Freiburg; host or cells: baculovirus-infected insect cells (Sf9)
T1 sequence (P06493 whole entry): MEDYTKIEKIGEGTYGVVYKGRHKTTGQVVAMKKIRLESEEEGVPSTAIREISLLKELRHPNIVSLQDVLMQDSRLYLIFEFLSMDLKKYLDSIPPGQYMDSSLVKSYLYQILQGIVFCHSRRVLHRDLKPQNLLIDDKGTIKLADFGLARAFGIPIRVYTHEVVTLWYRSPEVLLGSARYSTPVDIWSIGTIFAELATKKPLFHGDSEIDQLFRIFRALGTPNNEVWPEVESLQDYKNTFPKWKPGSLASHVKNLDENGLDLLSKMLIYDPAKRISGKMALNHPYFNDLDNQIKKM
T1 sequence (P14635 whole entry partner): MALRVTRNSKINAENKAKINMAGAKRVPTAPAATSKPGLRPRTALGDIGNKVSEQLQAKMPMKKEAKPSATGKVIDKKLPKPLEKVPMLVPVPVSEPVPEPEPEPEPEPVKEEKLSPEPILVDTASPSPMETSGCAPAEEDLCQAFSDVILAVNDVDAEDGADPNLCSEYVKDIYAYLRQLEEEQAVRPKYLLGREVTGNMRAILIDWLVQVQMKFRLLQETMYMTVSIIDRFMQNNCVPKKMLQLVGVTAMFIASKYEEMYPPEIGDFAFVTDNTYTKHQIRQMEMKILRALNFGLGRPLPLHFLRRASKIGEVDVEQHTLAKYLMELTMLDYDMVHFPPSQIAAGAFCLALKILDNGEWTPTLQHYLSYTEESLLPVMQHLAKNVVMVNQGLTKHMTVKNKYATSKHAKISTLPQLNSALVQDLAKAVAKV
Procedure: Recombinant CDK1- and CycB-GST-fusion proteins, purified from baculovirus-infected insect cells (Sf9), were purchased from ProQinase GmbH, Freiburg. Histone IIIS, used as a kinase substrate, is available commercially from the Sigma Company.
(§1) CDK1/CycB (200 ng/measuring point) was incubated for 10 minutes at 22° C. in the presence of various concentrations of test substances (0 μm, as well as within the range of 0.01-100 μm) in assay buffer [50 mmol of tris/HCl, pH 8.0, 10 mmol of MgCl2, 0.1 mmol of Na ortho-vanadate, 1.0 mmol of dithiothreitol, 0.5 μm of adenosine triphosphate (ATP), 10 μg/measuring point of histone IIIS, 0.2 μCi/measuring point of 33P-gamma ATP, 0.05% NP40, 1.25% dimethyl sulfoxide]. The reaction was stopped by adding EDTA solution (250 mmol, pH 8.0, 15 μl/measuring point).
(§2) From each reaction batch, 15 μl was applied to P30 filter strips (Wallac Company), and non-incorporated 33P-ATP was removed by subjecting the filter strips to three washing cycles for 10 minutes each in 0.5% phosphoric acid. After the filter strips were dried for one hour at 70° C., the filter strips were covered with scintillator strips (MeltiLex™ A, Wallac Company) and baked for one hour at 90° C. The amount of incorporated 33P (substrate phosphorylation) was determined by scintillation measurement in a gamma-radiation measuring device (Wallac).

[2] = target: T2, CDK2/CycE (Homo sapiens, UniProt P24941); assay: CDK2/CycE kinase assay; assay type: biochemical; conditions: histone IIIS substrate, 0.5 μm ATP
T2 construct: GST; purchased ProQinase GmbH, Freiburg; host or cells: baculovirus-infected insect cells (Sf9)
Procedure: Recombinant CDK2- and CycE-GST-fusion proteins, purified from baculovirus-infected insect cells (Sf9), were purchased by ProQinase GmbH, Freiburg. Histone IIIs, which was used as a kinase substrate, was purchased by the Sigma Company.
as §1, with “CDK2/CycE (50” for “CDK1/CycB (200”, “^33P-gamma” for “33P-gamma”, “12.5%” for “1.25%”
as §2, with “^33P-ATP” for “33P-ATP”, “^33P” for “33P”

[3] = target: T3, VEGF receptor tyrosine kinase-2 (Homo sapiens, UniProt P35968); assay: VEGF receptor-2 kinase assay; assay type: biochemical; conditions: poly-(Glu4Tyr) substrate, 8 μmol ATP; read-out: VEGF-R2 IC50
T3 construct: GST; made in house; host or cells: baculovirus-infected insect cells (Sf9)
T3 sequence (P35968 20-1356): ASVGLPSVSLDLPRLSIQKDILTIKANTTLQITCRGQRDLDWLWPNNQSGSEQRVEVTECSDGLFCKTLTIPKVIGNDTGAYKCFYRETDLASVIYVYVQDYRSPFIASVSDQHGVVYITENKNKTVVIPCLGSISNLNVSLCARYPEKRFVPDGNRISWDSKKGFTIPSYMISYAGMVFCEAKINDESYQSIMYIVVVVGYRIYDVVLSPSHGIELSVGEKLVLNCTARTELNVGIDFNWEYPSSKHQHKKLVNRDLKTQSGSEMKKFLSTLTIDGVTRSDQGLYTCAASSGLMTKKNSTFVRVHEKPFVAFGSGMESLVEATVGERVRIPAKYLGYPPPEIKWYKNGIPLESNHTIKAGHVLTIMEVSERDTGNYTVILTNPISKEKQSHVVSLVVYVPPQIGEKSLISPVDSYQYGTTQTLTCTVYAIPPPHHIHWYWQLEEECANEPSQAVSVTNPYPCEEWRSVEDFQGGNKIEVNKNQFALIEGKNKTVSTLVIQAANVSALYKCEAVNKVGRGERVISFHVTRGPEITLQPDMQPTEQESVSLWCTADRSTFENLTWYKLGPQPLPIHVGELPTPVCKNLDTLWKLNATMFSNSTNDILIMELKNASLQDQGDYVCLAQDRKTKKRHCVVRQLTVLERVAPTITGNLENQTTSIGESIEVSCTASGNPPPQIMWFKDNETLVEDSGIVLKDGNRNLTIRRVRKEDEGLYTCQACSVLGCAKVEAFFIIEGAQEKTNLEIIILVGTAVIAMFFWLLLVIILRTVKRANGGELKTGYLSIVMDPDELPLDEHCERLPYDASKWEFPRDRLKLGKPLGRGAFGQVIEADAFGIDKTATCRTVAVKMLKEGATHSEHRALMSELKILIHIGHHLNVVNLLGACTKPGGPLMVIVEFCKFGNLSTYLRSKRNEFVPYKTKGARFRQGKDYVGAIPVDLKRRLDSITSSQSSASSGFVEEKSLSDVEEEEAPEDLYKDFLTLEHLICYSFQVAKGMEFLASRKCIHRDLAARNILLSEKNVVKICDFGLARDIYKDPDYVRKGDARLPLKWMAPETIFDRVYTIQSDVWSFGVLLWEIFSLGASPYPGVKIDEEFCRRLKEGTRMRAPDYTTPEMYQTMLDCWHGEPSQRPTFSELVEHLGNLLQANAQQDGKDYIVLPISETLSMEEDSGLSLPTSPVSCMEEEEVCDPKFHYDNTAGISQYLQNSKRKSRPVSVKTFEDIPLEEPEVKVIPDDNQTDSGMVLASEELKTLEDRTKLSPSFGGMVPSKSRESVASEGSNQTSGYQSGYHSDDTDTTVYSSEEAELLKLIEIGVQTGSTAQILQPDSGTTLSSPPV
Procedure: VEGF Receptor-2 Kinase Assay
Recombinant VEGF receptor tyrosine kinase-2 was purified as a GST fusion protein from baculovirus-infected insect cells (Sf9). Poly-(Glu4Tyr), which was used as a kinase substrate, was purchased by the Sigma Company. VEGF receptor tyrosine kinase (90 ng/measuring point) was incubated for 10 minutes at 22° C. in the presence of various concentrations of test substances (0 μm, as well as within the range of 0.001-30 μm) in 30 μl of assay buffer [40 mmol of Tris/HCl, pH 5.5, 10 mmol of MgCl2, 1 mmol of MnCl2, 3 μmol of Na ortho-vanadate, 1.0 mmol of dithiothreitol, 8 μmol of adenosine trisphosphate (ATP), 0.96 μg/measuring point of poly-(Glu4Tyr), 0.2 μCi/measuring point of 33P-gamma ATP, 1.4% dimethyl sulfoxide]. The reaction was stopped by adding EDTA solution (250 mmol, pH 8.0, 15 μl/measuring point).
as §2

[4] = tested on: MCF7, hormone-independent human breast cancer cells; assay: Proliferation assay MCF7; assay type: cell-based; conditions: 96 h, 4 days, crystal violet
Description: (§3) Cultivated human tumor cells (MCF7, hormone-independent human breast cancer cells, related to ATCC HTB22; NCI-H460, human non-small-cell lung cancer cells, ATCC HTB-177, DU 145, hormone-independent human prostate cancer cells, ATCC HTB-81; MaTu-MDR, hormone-independent, multiple pharmaceutical agent-resistant human breast cancer cells, EPO-GmbH, Berlin) were flattened out at a density of about 3000-5000 cells/measuring point, depending on the growth rate of the respective cells, in a 96-well multititer plate in 200 μl of the corresponding growth medium. After 24 hours, the cells of one plate (zero-point plate) were colored with crystal violet (see below), while the medium of the other plates was replaced by fresh culture medium (200 μl), to which the test substances were added in various concentrations (0 μm, as well as in the range of 0.01-30 μm; the final concentration of the solvent dimethyl sulfoxide was 0.5%). The cells were incubated for 4 days in the presence of test substances. The cell proliferation was determined by coloring the cells with crystal violet: the cells were fixed by adding 20 μl/measuring point of an 11% glutaric aldehyde solution for 15 minutes at room temperature. After three washing cycles of the fixed cells with water, the plates were dried at room temperature. The cells were colored by adding 100 μl/measuring point of a 0.1% crystal violet solution (the pH was set at 3 by adding acetic acid). After three washing cycles of the colored cells with water, the plates were dried at room temperature. The dye was dissolved by adding 100 μl/measuring point of a 10% acetic acid solution. The extinction was determined by photometry at a wavelength of 595 nm. The change of cell growth, in percent, was calculated by normalization of the measured values to the extinction values of the zero-point plate (=0%) and the extinction of the untreated (0 μm) cells (=100%).

[5] = tested on: NCI-H460, human non-small-cell lung cancer cells; assay: Proliferation assay H460; assay type: cell-based; conditions: NCI-H460, 96 h, 4 days, crystal violet
Description: as §3

[6] = tested on: DU 145, hormone-independent human prostate cancer cells; assay: Proliferation assay DU145; assay type: cell-based; conditions: DU-145, 96 h, 4 days, crystal violet
Description: as §3

[7] = tested on: MaTu-ADR; assay: Proliferation assay MaTu-ADR; assay type: cell-based; conditions: Homo sapiens, 96 h; MaTu-ADR cells, 4 days, crystal violet
Description: as §3

[8] = target: Human Carboanhydrase-2 (Homo sapiens, UniProt P00918); assay: Carboanhydrase assay; assay type: biochemical; conditions: 4-nitrophenyl acetate hydrolysis, 60 minutes; read-out: Inhibition of Human Carboanhydrase-2 IC50
Procedure: 2 μl of the test compounds, dissolved in DMSO (100× the final concentration), in a concentration range of 0.03-10 μm (final), was pipetted as 4× determinations into the holes of a 96-hole microtiter plate. Holes that contained the solvent without test compounds were used as reference values (1. Holes without carboanhydrase for correction of the non-enzymatic hydrolysis of the substrate, and 2. Holes with carboanhydrase for determining the activity of the non-inhibited enzyme).
188 μl of assay buffer (10 mmol of Tris/HCl, pH 7.4, 80 mmol of NaCl), with or without 3 units/hole on carboanhydrase I or II, was pipetted into the holes of the microtiter plate.

Row | IC50 [1] [nM] | IC50 [2] [nM] | IC50 [3] [nM] | IC50 [4] [nM] | IC50 [5] [nM] | IC50 [6] [nM] | IC50 [8] [nM] | SMILES | IC50 [7] [nM]
1 | 8 | 8 | 39 | 50 | 50 | 50 | > 10000 | Cc1cc(Nc2ncc(Br)c(O[C@H](C)[C@@H](C)O)n2)cc(C)c1S(N)(=O)=O [Example 6, 4-[5-Bromo-4-((1R,2R)-2-hydroxy-1-methyl-propoxy)-pyrimidin-2-ylamino]-2,6-dimethyl-benzenesulfonamide] | 20
2 | 3 | 2 | 20 | < 100 | 130 | 90 | > 10000 | Cc1cc(Nc2ncc(Br)c(N[C@H](C)C(C)(C)O)n2)cc(C)c1S(N)(=O)=O [Example 2] | 70
3 | 5 | 6 | 19 | < 100 | 50 | 70 | > 10000 | Cc1cc(Nc2ncc(Br)c(N[C@H](C)[C@@H](C)O)n2)cc(C)c1S(N)(=O)=O [Example 3] | 40
4 | < 10 | < 10 | 250 | 180 | 200 | 150 | 530 | C[C@@H](Nc1nc(Nc2ccc(S(N)(=O)=O)cc2)ncc1Br)C(C)(C)O [Example 271 from WO 02/096888, 4-[5-Bromo-4-((R)-2-hydroxy-1,2-dimethyl-propylamino)-pyrimidin-2-ylamino]-benzenesulfonamide, reference compound] | < 100
5 | 5 | 10 | 130 | 120 | < 100 | 100 | – | Cc1cc(Nc2ncc(Br)c(N[C@H](C)[C@@H](C)O)n2)cc(Cl)c1S(N)(=O)=O [Example 4] | < 100
6 | < 10 | < 10 | 130 | 50 | 40 | 70 | 810 | C[C@@H](O)[C@@H](C)Nc1nc(Nc2ccc(S(N)(=O)=O)cc2)ncc1Br [Example 275 from WO 02/096888, 4-[5-Bromo-4-((1R,2R)-2-hydroxy-1-methyl-propylamino)-pyrimidin-2-ylamino]-benzenesulfonamide, reference compound] | 20
7 | 12 | 15 | 56 | 120 | 160 | 160 | 6000 | Cc1cc(Nc2ncc(Br)c(O[C@H](C)[C@@H](C)O)n2)cc(Br)c1S(N)(=O)=O [Example 7] | 50
8 | 15 | 14 | 18 | 600 | 300 | 400 | > 10000 | Cc1cc(Nc2ncc(Br)c(N[C@H](C)CO)n2)cc(C)c1S(N)(=O)=O [Example 1, 4-[5-Bromo-4-((R)-2-hydroxy-1-methyl-ethylamino)-pyrimidin-2-ylamino]-2,6-dimethyl-benzenesulfonamide] | 400
